The numbers were not newly measured in US10238678B2, “Therapeutic methods” (GlaxoSmithKline LLC, priority 2011, dated 2019), which cites them from elsewhere.

For the molecule `NC(=O)c1ncn([C@@H]2O[C@H](CO)[C@@H](O)[C@H]2O)n1` [Ribavirin], the “patients with significant hemolysis” value (currently recommended doses) is reported as 10-20%. Moreover, where the note is “in vivo”, the teratogenicity and embryotoxicity entry is “teratogenic and embryotoxic”.
